Target: T1, BTK (Homo sapiens, UniProt Q06187)
T1 construct: The GM01501.3 cell line endogenously expresses BTK with a HiBiT fusion tag via CRISPR knock-in at its C-terminal region; endogenous in cells; host or cells: GM01501.3 (GM01501 cells engineered by CRISPR knock-in of HiBiT at the BTK locus)
Experiment: BTK degradation assay using the HiBiT Method (Nano-Glo HiBiT Lytic Assay, GM01501.3 cells)
Format: cell-based
Details: HiBiT Degradation on GM01501.3 BTK @ 6 hours
Description: Selected compounds were tested in a BTK degradation assay using the HiBiT Method. Park Memorial Institute (RPM1) 1640 Medium with phenol red, L-Glutamine, Sodium Pyruvate, and fetal bovine serum (FBS) were purchased from Gibco (Grand Island, NY, USA). Nano-Glo® HiBiT Lytic Assay System was purchased from Promega (Madison, WI, USA). GM01501 cells were obtained from the NIGMS Human Genetic Cell Repository at the Coriell Institute for Medical Research. The GM01501.3 cell line endogenously expresses BTK with a HiBiT fusion tag via CRISPR knock-in at its C-terminal region. It was engineered by electroporation with the Neon Transfection System (Themo Fisher Scientific), according to manufacturer indications. Electroporation conditions: 1 pulse of 1,350 V for 30 ms for 0.5×10_6 cells. Cell culture flasks and 384-well microplates were acquired from VWR (Radnor, PA, USA). BTK degradation was evaluated by quantification of luminescent signal using Nano-Glo® HiBiT Lytic Assay kit. Test compounds were added to the 384-well plate from a top concentration of 10 μM with 11 points, half log titration in duplicates. GM01501.3 cells were added into 384-well plates at a cell density of 10,000 cells per well in a total volume of 30 μl. The plates were kept at 37° C. with 5% CO2 for 6 hours. Negative control wells included cells treated with DMSO only and positive control wells included only growing media, without Nano-Glo® HiBiT Lytic reagent. After a 6-hour incubation, Nano-Glo® HiBiT Lytic Assay reagent was added to the cells following manufacturer indications. Luminescence was acquired on EnVision™ Multilabel Reader (PerkinElmer, Santa Clara, CA, USA). […] “++++” represents a DC50 value of less than 100 nM. “+++” represents a DC50 value of 100 nM-500 nM. “++” represents a DC50 value of 500 nM-1000 nM. “+” represents a DC50 value of greater than 1000 nM.

T1 sequence (Q06187 whole entry, the tested form may be a part): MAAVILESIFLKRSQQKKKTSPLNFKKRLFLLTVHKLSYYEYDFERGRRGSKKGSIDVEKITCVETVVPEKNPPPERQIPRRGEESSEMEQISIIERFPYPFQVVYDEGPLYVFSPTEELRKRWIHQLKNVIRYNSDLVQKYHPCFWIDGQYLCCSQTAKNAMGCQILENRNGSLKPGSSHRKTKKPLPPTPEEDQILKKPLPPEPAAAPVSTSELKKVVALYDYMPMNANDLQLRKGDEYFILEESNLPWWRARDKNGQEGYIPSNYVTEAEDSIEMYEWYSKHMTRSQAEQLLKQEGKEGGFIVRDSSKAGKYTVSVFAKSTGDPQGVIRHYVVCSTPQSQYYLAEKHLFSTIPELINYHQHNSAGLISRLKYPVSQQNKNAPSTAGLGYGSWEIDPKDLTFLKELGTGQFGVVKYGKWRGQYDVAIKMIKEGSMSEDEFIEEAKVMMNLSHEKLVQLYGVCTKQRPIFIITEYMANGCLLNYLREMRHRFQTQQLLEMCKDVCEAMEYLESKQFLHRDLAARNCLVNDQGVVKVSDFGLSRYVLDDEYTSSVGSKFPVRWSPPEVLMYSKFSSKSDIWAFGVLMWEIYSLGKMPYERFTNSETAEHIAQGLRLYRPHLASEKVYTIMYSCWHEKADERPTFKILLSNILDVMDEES

Row | SMILES | DC50
1 | Cc1cc(-c2ncnn3cc(-c4ccc(CN5CCC(c6ccc(NC7CCC(=O)NC7=O)cc6)CC5)cc4)cc23)ccc1CNC(=O)c1cc(C(C)(C)C)on1 (stereo not drawn) [Example 83, -tert-butyl-N-[[4-[6-[4-[[4-[4-[(2,6-dioxo-3-piperidyl)amino]phenyl]-1-piperidyl]methyl]phenyl]pyrrolo[2,1-f][1,2,4]triazin-4-yl]-2-methyl-phenyl]methyl]isoxazole-3-carboxamide] | < 100 nM
2 | CC(C)(C)c1nc(C(=O)NCc2ccc(-c3ncnn4cc(CCCCN5CCC(c6ccc(C7(C)CCC(=O)NC7=O)cc6)CC5)cc34)cc2F)no1 (stereo not drawn) [Example 140, 5-tert-butyl-N-[[2-fluoro-4-[6-[4-[4-[4-(3-methyl-2,6-dioxo-3-piperidyl)phenyl]-1-piperidyl]butyl]pyrrolo[2,1-f][1,2,4]triazin-4-yl]phenyl]methyl]-1,2,4-oxadiazole-3-carboxamide] | < 100 nM
3 | Cc1cc(-c2ncnn3cc(-c4ccc(CN5CCC(c6ccc(NC7CCC(=O)NC7=O)cc6)CC5)cc4)cc23)ccc1CNC(=O)c1nc(C(C)(C)C)co1 (stereo not drawn) [Example 80, 4-tert-butyl-N-[[4-[6-[4-[[4-[4-[(2,6-dioxo-3-piperidyl)amino]phenyl]-1-piperidyl]methyl]phenyl]pyrrolo[2,1-f][1,2,4]triazin-4-yl]-2-methyl-phenyl]methyl]oxazole-2-carboxamide] | < 100 nM
4 | Cc1cc(-c2ncnn3cc(-c4ccc(CN5CCC(c6ccc(NC7CCC(=O)NC7=O)cc6)CC5)cc4)cc23)ccc1CN1CCN(CC(C)(C)C)CC1=O (stereo not drawn) [Example 103, 3-[4-[1-[[4-[4-[4-[[4-(2,2-dimethylpropyl)-2-oxo-piperazin-1-yl]methyl]-3-methyl-phenyl]pyrrolo[2,1-f][1,2,4]triazin-6-yl]phenyl]methyl]-4-piperidyl]anilino]piperidine-2,6-dione] | < 100 nM
5 | Cc1cc(-c2ccnc3nn(-c4ccc(CN5CCC(c6ccc(NC7CCC(=O)NC7=O)cc6)CC5)cc4)cc23)ccc1CNC(=O)c1noc(C(C)(C)C)n1 (stereo not drawn) [Example 159, 5-tert-butyl-N-[[4-[2-[4-[[4-[4-[(2,6-dioxo-3-piperidyl)amino]phenyl]-1-piperidyl]methyl]phenyl]pyrazolo[3,4-b]pyridin-4-yl]-2-methyl-phenyl]methyl]-1,2,4-oxadiazole-3-carboxamide] | 100 to 500 nM
6 | CC(C)(C)c1nc(C(=O)NCc2ccc(-c3ncnn4cc(-c5ccc(CN6CC[C@@H](c7ccc(NC8CCC(=O)NC8=O)cc7)CC67CC7)cc5)cc34)cc2F)no1 (stereo partly drawn) [Example 38, 5-tert-butyl-N-[[4-[6-[4-[[(7R)-7-[4-[(2,6-dioxo-3-piperidyl)amino]phenyl]-4-azaspiro[2.5]octan-4-yl]methyl]phenyl]pyrrolo[2,1-f][1,2,4]triazin-4-yl]-2-fluoro-phenyl]methyl]-1,2,4-oxadiazole-3-carboxamide] | < 100 nM
7 | Cc1cc(-c2ccnc3sc(CCCCN4CCC(c5ccc(NC6CCC(=O)NC6=O)cc5)CC4)cc23)ccc1CNC(=O)c1noc(C(C)(C)C)n1 (stereo not drawn) [Example 158, 5-tert-butyl-N-[[4-[2-[4-[4-[4-[(2,6-dioxo-3-piperidyl)amino]phenyl]-1-piperidyl]butyl]thieno[2,3-b]pyridin-4-yl]-2-methyl-phenyl]methyl]-1,2,4-oxadiazole-3-carboxamide] | 100 to 500 nM
8 | CC(C)(C)c1nc(C(=O)NCc2ccc(-c3ncnn4cc(-c5ccc(OCCN6CCC(n7ccc(NC8CCC(=O)NC8=O)n7)CC6)cc5)cc34)cc2F)no1 (stereo not drawn) [Example 108, 5-tert-butyl-N-[[4-[6-[4-[2-[4-[3-[(2,6-dioxo-3-piperidyl)amino]pyrazol-1-yl]-1-piperidyl]ethoxy]phenyl]pyrrolo[2,1-f][1,2,4]triazin-4-yl]-2-fluoro-phenyl]methyl]-1,2,4-oxadiazole-3-carboxamide] | < 100 nM
9 | Cc1cc(-c2ncnn3cc(-c4ccc(CN5CCC(c6ccc(NC7CCC(=O)NC7=O)cc6)CC5)cc4)cc23)ccc1CNC(=O)CCCC(C)(C)C (stereo not drawn) [Example 74, N-[[4-[6-[4-[[4-[4-[(2,6-dioxo-3-piperidyl)amino]phenyl]-1-piperidyl]methyl]phenyl]pyrrolo[2,1-f][1,2,4]triazin-4-yl]-2-methyl-phenyl]methyl]-5,5-dimethyl-hexanamide] | < 100 nM
10 | CC(C)(C)c1nc(C(=O)NCc2ccc(-c3ncnn4cc(CCN5CCC(c6ccc(C7(C)CCC(=O)NC7=O)cc6)CC5)cc34)cc2F)no1 (stereo not drawn) [Example 121, 5-tert-butyl-N-[[2-fluoro-4-[6-[2-[4-[4-(3-methyl-2,6-dioxo-3-piperidyl)phenyl]-1-piperidyl]ethyl]pyrrolo[2,1-f][1,2,4]triazin-4-yl]phenyl]methyl]-1,2,4-oxadiazole-3-carboxamide] | 100 to 500 nM
11 | Cc1cc(-c2ncnn3cc(-c4ccc(CN5CCC(c6ccc(NC7CCC(=O)NC7=O)cc6)CC5)cc4)cc23)ccc1CNC(=O)c1ccc(C(F)(F)F)nc1 (stereo not drawn) [Example 63, N-[[4-[6-[4-[[4-[4-[(2,6-dioxo-3-piperidyl)amino]phenyl]-1-piperidyl]methyl]phenyl]pyrrolo[2,1-f][1,2,4]triazin-4-yl]-2-methyl-phenyl]methyl]-6-(trifluoromethyl)pyridine-3-carboxamide] | < 100 nM

Results, then the molecule that gave them:

Row | DC50 | SMILES
12 | < 100 nM | COc1cc(CN2CCC(c3ccc(C4CCC(=O)NC4=O)cc3)CC2)ccc1-c1cc2c(-c3ccc(CNC(=O)c4noc(C(C)(C)C)n4)c(C)c3)ncnn2c1 (stereo not drawn) [Example 22, 5-tert-butyl-N-[[4-[6-[4-[[4-[4-(2,6-dioxo-3-piperidyl)phenyl]-1-piperidyl]methyl]-2-methoxy-phenyl]pyrrolo[2,1-f][1,2,4]triazin-4-yl]-2-methyl-phenyl]methyl]-1,2,4-oxadiazole-3-carboxamide]
13 | < 100 nM | Cc1cc(-c2ncnn3cc(N4CCN(C(=O)CC5CC6(CO5)CN(C(=O)c5ccc(OC7CCC(=O)NC7=O)cc5)C6)CC4)cc23)ccc1CNC(=O)c1noc(C(C)(C)C)n1 (stereo not drawn) [Example 190, 5-(tert-butyl)-N-(4-(6-(4-(2-(2-(4-((2,6-dioxopiperidin-3-yl)oxy)benzoyl)-6-oxa-2-azaspiro[3.4]octan-7-yl)acetyl)piperazin-1-yl)pyrrolo[2,1-f][1,2,4]triazin-4-yl)-2-methylbenzyl)-1,2,4-oxadiazole-3-carboxamide]
14 | < 100 nM | CC(C)(C)c1nc(C(=O)NCc2ccc(-c3ncnn4cc(-c5ccc(CN6CCC(CCc7ccc(OC8CCC(=O)NC8=O)cc7)CC6)cn5)cc34)cc2F)no1 (stereo not drawn) [Example 239, 5-(tert-butyl)-N-(4-(6-(5-((4-(4-((2,6-dioxopiperidin-3-yl)oxy)phenethyl)piperidin-1-yl)methyl)pyridin-2-yl)pyrrolo [2,1-f][1,2,4]triazin-4-yl)-2-fluorobenzyl)-1,2,4-oxadiazole-3-carboxamide]
15 | < 100 nM | Cc1cc(-c2ncnn3cc(-c4ccc(CN5CCC(c6ncc(NC7CCC(=O)NC7=O)cn6)CC5)cc4)cc23)ccc1CNC(=O)c1noc(C(C)(C)C)n1 (stereo not drawn) [Example 14, 5-tert-butyl-N-[[4-[6-[4-[[4-[5-[(2,6-dioxo-3-piperidyl)amino]pyrimidin-2-yl]-1-piperidyl]methyl]phenyl]pyrrolo [2,1-f][1,2,4]triazin-4-yl]-2-methyl-phenyl]methyl]-1,2,4-oxadiazole-3-carboxamide]
16 | < 100 nM | CC(C)(C)c1nc(C(=O)NCc2ccc(-c3ncnn4cc(-c5ccc(CN6CCN(Cc7cccc(OC8CCC(=O)NC8=O)c7)CC6)cn5)cc34)cc2F)no1 (stereo not drawn) [Example 235, 5-(tert-butyl)-N-(4-(6-(5-((4-(3-((2,6-dioxopiperidin-3-yl)oxy)benzyl)piperazin-1-yl)methyl)pyridin-2-yl)pyrrolo[2,1-f][1,2,4]triazin-4-yl)-2-fluorobenzyl)-1,2,4-oxadiazole-3-carboxamide]
17 | < 100 nM | Cc1cc(-c2ncnn3cc(-c4ccc(CN5CCC(c6ccc(NC7CCC(=O)NC7=O)cc6)CC5(C)C)cc4)cc23)ccc1CNC(=O)c1noc(C(C)(C)C)n1 (stereo not drawn) [Example 5, 5-tert-butyl-N-[[4-[6-[4-[[4-[4-[(2,6-dioxo-3-piperidyl)amino]phenyl]-2,2-dimethyl-1-piperidyl]methyl]phenyl]pyrrolo[2,1-f][1,2,4]triazin-4-yl]-2-methyl-phenyl]methyl]-1,2,4-oxadiazole-3-carboxamide]
18 | < 100 nM | Cc1cc(-c2ncnn3cc(CCC(F)(F)CN4CCC(c5ccc(C6CCC(=O)NC6=O)cc5)CC4)cc23)ccc1CNC(=O)c1noc(C(C)(C)C)n1 (stereo not drawn) [Example 168, 5-tert-butyl-N-[[4-[6-[4-[4-[4-(2,6-dioxo-3-piperidyl)phenyl]-1-piperidyl]-3,3-difluoro-butyl]pyrrolo[2,1-f][1,2,4]triazin-4-yl]-2-methyl-phenyl]methyl]-1,2,4-oxadiazole-3-carboxamide]

From patent publication US20240287076A1, “COMPOUNDS FOR TARGETING DEGRADATION OF BRUTON'S TYROSINE KINASE” (BIOGEN MA INC., priority 2021, published 2024)
